“Also recorded” adds a separate entry of the source.
Tested on: hyperactive bladder (PS/KCl)
Assay: Continuous CMG, hyperactive bladder induced by PS/KCl (Examples 5-6)
Format: in vivo, female Sprague-Dawley rats
Conditions: for Amplitude / Compliance / ICI / PT: N=6
Procedure: This was followed by instillation of liposomes (LP) in saline (in the case of the former) or LP/KCl.
Intravesical bladder pressure was recorded via a transurethral catheter in adult female Sprague-Dawley rats anesthetized with urethane (1.2 g/kg) administered by subcutaneous injection (sc). Some animals were pretreated with capsaicin (125 mg/kg, sc) four days prior to the experiments. […] Parameters measured included intercontraction interval (ICI), amplitude of bladder contractions, compliance and micturition pressure threshold (PT).
Animal Preparation. Thirty-four female Sprague-Dawley rats (250-300 g) were used in this study. Animals were anesthetized with urethane (1.2 g/kg, sc). Body temperature was maintained in the physiological range using a heating lamp.
Cystometrogram (CMG). A transurethral bladder catheter (PE-50) was connected via a three-way stopcock to a pressure transducer and to a syringe pump. This was used to record intravesical pressure and to infuse solutions into the bladder. A control CMG was performed by slowly filling the bladder with saline (0.04 ml/min) to elicit repetitive voiding. The parameters recorded were amplitude, PT, compliance, and ICI of reflex bladder contractions. Measurements in each animal represented the average of 3 to 5 bladder contractions.
Induction of a Hyperactive Bladder. […] L. Cheng et al., 1993, Am. J. Physiol. 265:R132-138). The experimental design is illustrated in FIG. 7. The KCl concentration used was within the range of concentrations present in normal rat urine (M. Ohnishi et al., 2001, Toxicol. Appl. Pharmacol. 174:122-129).
Preparation of Liposomes (LP). LP were prepared as described by Kirby and Gregoriadis (C. J. Kirby and G. Gregoriadia, 1984, “A simple procedure for preparing liposomes capable of high encapsulation efficiency under mild conditions,” Liposome Technology; G. Gregnoriadis, Ed., C.R.C. Press, Inc., Boca Raton, Fla., Vol. 1, p. 20). Briefly, LP were constructed as a 2:1 molar ratio of L-α-phosphatidylcholine and cholesterol (Sigma Chemical Co., St. Louis, Mo.) to a final lipid concentration of 2 mg/ml in saline. Lipids in chloroform were dried down together in the proper ratio under nitrogen. The residues were reconstituted as LP in saline or 500 mM KCl by intense sonication.
Statistical Analyis. Statistical analyses were performed using Student's t test for paired or unpaired data, where applicable. A p-value less than 0.05 was considered significant. All data are expressed in Example 2 (below) as means±S.E.

[1] = Table 1B series: saline, KCl 500 mM 1 h, PS/KCl 1 h, LP/KCl 2 h
[2] = Table 1C series: saline, KCl 500 mM 1 h, PS/KCl 1 h
[3] = Table 1C: KCl infusion 2 h after PS/KCl
[4] = infusion after PS/KCl, vs pretreatment

[Cl-].[K+] [KCl]
PT change (PS/KCl series, vs pretreatment): significantly increased | Amplitude [1]: 28.8 ± 1.2 cm H2O | Compliance [1]: 0.284±0.028 ml/cm H2O | ICI [1]: 15.8 ± 1.4 min | PT [1]: 8.2 ± 0.9 cm H2O | Amplitude [2]: 28.8 ± 2.2 cm H2O | Compliance [2]: 0.226±0.050 ml/cm H2O | ICI [2]: 16.3 ± 1.5 min | PT [2]: 6.8 ± 0.6 cm H2O | Amplitude [3]: 33.0 ± 2.3 cm H2O | Compliance [3]: 0.043±0.014 ml/cm H2O | ICI [3]: 2.9 ± 0.5 min | PT [3]: 11.8 ± 1.6 cm H2O | change of ICI / CMGs (infused alone: PS 10 mg/ml or KCl 500 mM): not changed; also recorded: did not significantly change the CMGs | Compliance change [4]: further reduced | ICI change [4]: not significantly changed; also recorded: did not alter the ICI for periods as long as 120 min

— patent publication US8110217B2, “Sphingomyelin liposomes for the treatment of hyperactive bladder disorders” (priority 2001, dated 2012)
